# Results taken from US6582713B2, “Compositions and methods for promoting wound healing” (Univ. of Colorado - Colorado Springs, priority 2000, dated 2003).
# Where “and” joins values, the source holds several entries; their conditions need not be identical. Identical values can stand only once. Marks after values point to notes of the source that are not given here.
# Experiments:
# unsealed wound = assay: Effect of three day insulin treatment on unsealed wound in vivo; parameters: species or system mice; settings: 100 micro liters applied to unsealed incision, photographs daily for one week
# Description: Six mice were anesthetized with avetin Q 15-18 micro liters per gram body weight. An area on the back of the neck was swabbed with alcohol and shaved. A single vertical incision was made with scissors. One hundred micro liters of insulin was applied to three mice and 100 micro liters of water was applied to the other three. Photographs of the wounds were taken on a daily basis for one week.
# [1] = Blood glucose level after treatment injected into incision sealed with cyanoacrylate; assay type: in vivo, mice; settings: for Blood Glucose Level: individual mice
# Protocol: Twelve mice were used in the study. Each mouses' blood glucose level was tested at the start of the study. The mice were then weighted and anesthetized. The back of the neck was shaved and a single incision was made. The incision was then sealed with cyanoacrylate polymer which was applied and allowed to set for 1½ minutes. The treatment (glucose, water, insulin, or insulin plus glucose) as described above were injected into the incision. […] On day 1, blood glucose was again measured and the wound was photographed. This was repeated on days 3, 5, and 7. Mouse numbers 1, 2, and 3 received glucose treatment. Mouse numbers 4, 5, and 6 received water (control). Mouse numbers 7, 8, and 9 received insulin plus glucose. Mouse numbers 10, 11, and 12 received insulin.
substance,measurement,setting,value
insulin,wound healing compared with water,unsealed wound,More complete wound healing
same,Blood Glucose Level,"[1]; 0 Hr (start of study, before treatment)",89 mg/dL and 104 mg/dL and 118 mg/dL
same,Blood Glucose Level,"[1]; 0.5 Hr, incision sealed with cyanoacrylate",58 mg/dL and 36 mg/dL and 46 mg/dL
same,Blood Glucose Level,"[1]; 3.0 Hr., incision sealed with cyanoacrylate",<25 mg/dL
same,Blood Glucose Level,"[1]; 21 Hr., incision sealed with cyanoacrylate",<25 mg/dL (2×) and 113 mg/dL
same,Blood Glucose Level,"[1]; 69 Hr., incision sealed with cyanoacrylate",<25* mg/dL and 109 mg/dL
same,death of mouse,"[1]; by 69 Hr., individual mouse",Died
same,effect on levels of blood glucose compared with control water treatment,[1]; summary of Table 1,dramatic effects
